Experimental data: US20090274731A1, “PRODUCTION OF ENVELOPED PHARMACEUTICAL DOSAGE FORMS” (ABBOTT GMBH & CO. KG, priority 2006, published 2009)

Test: Relative solubility of paracetamol in the release media
Assay type: physicochemical
Settings: in 20% ethanol compared with 0.01 M HCl; in words

CC(=O)Nc1ccc(O)cc1 [paracetamol]
solubility: distinctly more soluble
